Measured values from PubChem BioAssay AID652253 (Vanderbilt Specialized Chemistry Center, 2013).
Calls of active or inactive are those of the source. No rule for the calls is given here.

molecular target: Proteinase-activated receptor 4 (Homo sapiens) (UniProt Q96RI0); assay: PAR4 antagonist concentration-response, dose response, cell-based, CRC (AID 652253); details: cells, PAR4-AP induced response
Sequence (Q96RI0 whole entry, looked up): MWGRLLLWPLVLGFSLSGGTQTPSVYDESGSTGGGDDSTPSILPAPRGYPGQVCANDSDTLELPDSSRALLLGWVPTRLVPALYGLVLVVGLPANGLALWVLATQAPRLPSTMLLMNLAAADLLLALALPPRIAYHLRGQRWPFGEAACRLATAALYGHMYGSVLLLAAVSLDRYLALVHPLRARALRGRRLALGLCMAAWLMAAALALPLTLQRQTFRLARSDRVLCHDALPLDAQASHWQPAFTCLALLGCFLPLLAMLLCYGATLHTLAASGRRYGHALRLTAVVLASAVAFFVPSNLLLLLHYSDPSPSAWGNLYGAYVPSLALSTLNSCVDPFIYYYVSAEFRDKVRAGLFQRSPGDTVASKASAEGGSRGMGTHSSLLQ

Row | Structure (SMILES) | IC50
1 | COc1ccc(-c2cn(Cc3cccc(F)c3)c3ccccc23)cn1 | inactive
2 | COc1ccc(-c2cn(Cc3ccccc3)c3ccccc23)cn1 | inactive
3 | COc1ccc(COc2ccc(C(=O)NCCC(C)(C)C)cc2)cc1 | 139 nM
4 | COc1ccc(-c2cn(Cc3cccc(Br)c3)c3ccccc23)cn1 | inactive
5 | COc1ccc(-c2cn(Cc3cccc(Cl)c3)c3ccccc23)cn1 | inactive

same assay, conditions: cells, PAR4-AP induced response, at 10 µM (top of the series)

Row | Structure (SMILES) | % PAR4-AP response remaining
6 | COc1ccc(-c2cn(Cc3cccc(S(C)(=O)=O)c3)c3ccccc23)cn1 | inactive
7 | COc1ccc(-c2cn(Cc3ccccc3)c3ccccc23)cc1 | inactive
8 | Fc1ccc(-c2cn(Cc3ccccc3)c3ccccc23)cn1 | inactive
